Laboratory results published in ChEMBL document CHEMBL4818986, “Recent progress on HDAC inhibitors with dual targeting capabilities for cancer treatment” (Eur J Med Chem, 2020).

Experiments:
4T1 = experiment: Antiproliferative activity against mouse 4T1 cells by EdU alexa fluor high-throughput imaging method; assay type: functional, cell-based
THP-1 = experiment: Antiproliferative activity against human THP1 incubated for 72 hrs by Trypan Blue reagent based assay; assay type: functional, cell-based; settings: THP-1, 72 h
Histone deacetylase [1] = experiment: Inhibition of HDAC in human K562 cells using Boc-K(Ac)-AMC as substrate preincubated for 3 hrs followed by substrate addition and measured after 3 hrs by fluorescence method; assay type: cell-based
[2] = target: T1, Histone-lysine N-methyltransferase EHMT2 (Homo sapiens, UniProt Q96KQ7); experiment: Inhibition of G9a in human MDA-MB-231 cells assessed as effect on H3K9Me2 levels incubated for 48 hrs by immunofluorescence in-cell western assay; assay type: cell-based
T1 sequence (Q96KQ7 whole entry): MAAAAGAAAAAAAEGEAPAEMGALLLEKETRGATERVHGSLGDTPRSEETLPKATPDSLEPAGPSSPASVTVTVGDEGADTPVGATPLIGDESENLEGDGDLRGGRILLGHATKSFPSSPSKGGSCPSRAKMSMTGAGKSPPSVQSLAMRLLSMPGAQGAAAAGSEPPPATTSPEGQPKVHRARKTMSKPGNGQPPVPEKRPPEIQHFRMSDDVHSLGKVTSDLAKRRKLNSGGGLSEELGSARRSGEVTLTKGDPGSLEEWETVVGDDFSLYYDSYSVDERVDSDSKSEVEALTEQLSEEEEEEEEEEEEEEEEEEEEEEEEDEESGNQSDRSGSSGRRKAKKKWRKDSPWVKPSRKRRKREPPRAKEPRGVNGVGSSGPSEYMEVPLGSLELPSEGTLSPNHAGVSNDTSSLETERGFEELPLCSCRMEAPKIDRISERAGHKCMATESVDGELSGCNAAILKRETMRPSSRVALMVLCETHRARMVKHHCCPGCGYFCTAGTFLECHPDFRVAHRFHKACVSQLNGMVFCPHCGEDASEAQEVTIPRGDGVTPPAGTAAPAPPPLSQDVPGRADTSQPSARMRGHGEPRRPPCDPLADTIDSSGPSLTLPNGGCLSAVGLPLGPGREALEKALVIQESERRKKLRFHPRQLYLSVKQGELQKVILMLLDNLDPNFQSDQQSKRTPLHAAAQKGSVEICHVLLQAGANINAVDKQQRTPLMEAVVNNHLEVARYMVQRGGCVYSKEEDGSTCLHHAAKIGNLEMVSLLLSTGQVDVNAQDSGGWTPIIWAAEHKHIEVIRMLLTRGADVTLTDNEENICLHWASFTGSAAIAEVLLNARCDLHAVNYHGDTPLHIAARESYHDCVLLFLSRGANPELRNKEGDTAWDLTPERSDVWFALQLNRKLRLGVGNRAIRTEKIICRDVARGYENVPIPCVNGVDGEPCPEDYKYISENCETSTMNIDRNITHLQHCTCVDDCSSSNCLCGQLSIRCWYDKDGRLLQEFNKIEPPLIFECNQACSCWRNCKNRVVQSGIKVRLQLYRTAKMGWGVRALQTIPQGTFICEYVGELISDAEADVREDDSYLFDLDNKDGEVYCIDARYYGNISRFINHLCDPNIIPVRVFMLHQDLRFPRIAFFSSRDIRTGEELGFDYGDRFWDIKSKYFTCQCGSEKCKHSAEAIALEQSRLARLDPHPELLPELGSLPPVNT

CAPAN-1 = experiment: Antiproliferative activity against human CAPAN 1 cells incubated for 72 hrs by CCK8 assay; assay type: functional, cell-based; settings: CAPAN-1, 72 h
Histone deacetylase 1 [3] = target: T2, Histone deacetylase 1 (Homo sapiens, UniProt Q13547); experiment: Inhibition of human HDAC1 expressed in baculovirus expression system by fluorescence method
U-251 = experiment: Antiproliferative activity against human U251 cells assessed as reduction in cell viability incubated for 72 hrs by MTT assay; assay type: functional, cell-based; settings: U-251, 72 h
U-87 MG = experiment: Antiproliferative activity against human U87 cells assessed as reduction in cell viability incubated for 72 hrs by MTT assay; assay type: functional, cell-based, U-87MG ATCC
T98G = experiment: Antiproliferative activity against human T98G cells assessed as reduction in cell viability incubated for 72 hrs by MTT assay; assay type: functional, cell-based
[4] = target: T3, Epidermal growth factor receptor (Homo sapiens, UniProt P00533); experiment: Inhibition of EGFR (unknown origin)
[5] = target: T4, Protein deacetylase HDAC6 (Homo sapiens, UniProt Q9UBN7); experiment: Inhibition of HDAC6 (unknown origin)
T4 sequence (Q9UBN7 whole entry): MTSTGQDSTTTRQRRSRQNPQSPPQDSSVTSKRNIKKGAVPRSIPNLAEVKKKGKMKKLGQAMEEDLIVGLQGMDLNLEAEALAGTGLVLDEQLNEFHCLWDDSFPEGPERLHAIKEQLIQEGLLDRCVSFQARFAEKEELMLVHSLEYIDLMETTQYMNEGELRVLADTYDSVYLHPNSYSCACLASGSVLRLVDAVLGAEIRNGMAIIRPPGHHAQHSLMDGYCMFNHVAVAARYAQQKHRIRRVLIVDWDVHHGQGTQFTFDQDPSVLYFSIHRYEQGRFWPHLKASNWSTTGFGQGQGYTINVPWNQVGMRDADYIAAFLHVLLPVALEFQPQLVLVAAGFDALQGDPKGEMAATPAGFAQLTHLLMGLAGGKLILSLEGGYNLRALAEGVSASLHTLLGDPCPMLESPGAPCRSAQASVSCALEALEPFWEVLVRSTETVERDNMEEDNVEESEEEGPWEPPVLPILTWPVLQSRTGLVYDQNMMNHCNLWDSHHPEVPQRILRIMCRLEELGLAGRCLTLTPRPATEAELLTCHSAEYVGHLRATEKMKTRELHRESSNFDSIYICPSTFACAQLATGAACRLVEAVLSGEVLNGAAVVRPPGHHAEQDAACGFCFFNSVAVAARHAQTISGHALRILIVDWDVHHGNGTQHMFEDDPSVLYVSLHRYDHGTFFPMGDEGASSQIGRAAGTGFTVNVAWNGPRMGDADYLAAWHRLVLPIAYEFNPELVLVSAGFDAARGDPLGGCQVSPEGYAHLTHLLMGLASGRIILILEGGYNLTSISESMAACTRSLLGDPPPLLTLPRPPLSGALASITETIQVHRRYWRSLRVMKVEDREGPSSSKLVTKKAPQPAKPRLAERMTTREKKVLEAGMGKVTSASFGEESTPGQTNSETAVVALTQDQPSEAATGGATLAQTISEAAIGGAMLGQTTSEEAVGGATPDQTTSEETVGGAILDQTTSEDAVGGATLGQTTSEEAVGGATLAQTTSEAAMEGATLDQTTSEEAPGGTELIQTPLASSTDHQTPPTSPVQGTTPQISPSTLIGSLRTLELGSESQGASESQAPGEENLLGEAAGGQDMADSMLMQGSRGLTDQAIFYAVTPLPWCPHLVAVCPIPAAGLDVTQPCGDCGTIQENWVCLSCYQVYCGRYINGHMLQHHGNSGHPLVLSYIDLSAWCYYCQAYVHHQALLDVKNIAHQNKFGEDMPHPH

Histone deacetylase 1 [6] = target: T2, Histone deacetylase 1; experiment: Inhibition of HDAC1 (unknown origin)
A549 [7] = experiment: Antiproliferative activity against human A549 cells; assay type: functional, cell-based
[8] = target: Cyclin-dependent kinase 4 (Homo sapiens, UniProt P11802); experiment: Inhibition of CDK4 (unknown origin)
[9] = Inhibition of human SCC-25 cell metabolism incubated for 72 hrs by CCK8 assay; assay type: functional; settings: SCC-25, 72 h
KG-1 = experiment: Antiproliferative activity against human KG-1 cells incubated for 72 hrs by MTT assay; assay type: functional, cell-based; settings: KG-1, 72 h
[10] = target: T3, Epidermal growth factor receptor; experiment: Inhibition of EGFR (unknown origin) incubated for 40 mins by kinase-glo plus luminescence assay
A549 [11] = experiment: Antiproliferative activity against human A549 cells incubated for 72 hrs by MTT assay; assay type: functional, cell-based; settings: A549, 72 h
MDA-MB-468 = experiment: Antiproliferative activity against human MDA-MB-468 cells incubated for 72 hrs by MTT assay; assay type: functional, cell-based; settings: MDA-MB-468, 72 h
Histone deacetylase [12] = experiment: Inhibition of HDAC in human HeLa cell nuclear extracts using Boc-Lys (acetyl)-AMC as substrate preincubated for 5 mins followed by substrate addition and measured after 30 mins by fluorescence based assay
[13] = target: DNA (cytosine-5)-methyltransferase 1 (Homo sapiens, UniProt P26358); experiment: Inhibition of DNMT1 (unknown origin) using poly(dI-dC)-poly(dI-dC as substrate in presence of [3H-SAM] preincubated for 15 mins followed by substrate and [3H-SAM] addition and measured after 120 mins by liquid scintillation counting method
Histone deacetylase 1 [14] = target: T2, Histone deacetylase 1; experiment: Inhibition of HDAC1 (unknown origin) using Ac-peptide as substrate in preincubated for 15 mins followed by substrate addition and measured after 60 mins by fluorescence method
[15] = target: DNA (cytosine-5)-methyltransferase 3A (Homo sapiens, UniProt Q9Y6K1); experiment: Inhibition of DNMT3A (unknown origin) using biotinylated DNA oligonucleotides as substrate in presence of [3H-SAM] preincubated for 15 mins followed by substrate and [3H-SAM] addition and measured after 4 hrs by liquid scintillation counting method
[16] = target: Class 1 histone deacetylase (Homo sapiens, UniProt Q13547+O15379+Q92769+Q9BY41); experiment: Inhibition of HDAC class1 (unknown origin); assay type: protein assay

T2 sequence (Q13547 whole entry): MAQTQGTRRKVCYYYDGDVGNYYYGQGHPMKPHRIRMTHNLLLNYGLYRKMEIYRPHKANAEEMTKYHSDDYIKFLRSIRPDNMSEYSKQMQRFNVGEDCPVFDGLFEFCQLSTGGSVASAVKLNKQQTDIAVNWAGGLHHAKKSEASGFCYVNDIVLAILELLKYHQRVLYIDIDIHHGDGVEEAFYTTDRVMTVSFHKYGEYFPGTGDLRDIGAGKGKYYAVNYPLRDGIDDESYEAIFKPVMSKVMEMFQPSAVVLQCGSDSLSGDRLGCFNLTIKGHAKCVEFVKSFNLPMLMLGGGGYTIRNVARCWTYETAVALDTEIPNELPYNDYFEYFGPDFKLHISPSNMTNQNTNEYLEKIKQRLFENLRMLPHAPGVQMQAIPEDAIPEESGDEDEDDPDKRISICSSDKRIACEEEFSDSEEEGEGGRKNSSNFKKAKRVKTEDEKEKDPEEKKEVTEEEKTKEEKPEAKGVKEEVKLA
T3 sequence (P00533 whole entry): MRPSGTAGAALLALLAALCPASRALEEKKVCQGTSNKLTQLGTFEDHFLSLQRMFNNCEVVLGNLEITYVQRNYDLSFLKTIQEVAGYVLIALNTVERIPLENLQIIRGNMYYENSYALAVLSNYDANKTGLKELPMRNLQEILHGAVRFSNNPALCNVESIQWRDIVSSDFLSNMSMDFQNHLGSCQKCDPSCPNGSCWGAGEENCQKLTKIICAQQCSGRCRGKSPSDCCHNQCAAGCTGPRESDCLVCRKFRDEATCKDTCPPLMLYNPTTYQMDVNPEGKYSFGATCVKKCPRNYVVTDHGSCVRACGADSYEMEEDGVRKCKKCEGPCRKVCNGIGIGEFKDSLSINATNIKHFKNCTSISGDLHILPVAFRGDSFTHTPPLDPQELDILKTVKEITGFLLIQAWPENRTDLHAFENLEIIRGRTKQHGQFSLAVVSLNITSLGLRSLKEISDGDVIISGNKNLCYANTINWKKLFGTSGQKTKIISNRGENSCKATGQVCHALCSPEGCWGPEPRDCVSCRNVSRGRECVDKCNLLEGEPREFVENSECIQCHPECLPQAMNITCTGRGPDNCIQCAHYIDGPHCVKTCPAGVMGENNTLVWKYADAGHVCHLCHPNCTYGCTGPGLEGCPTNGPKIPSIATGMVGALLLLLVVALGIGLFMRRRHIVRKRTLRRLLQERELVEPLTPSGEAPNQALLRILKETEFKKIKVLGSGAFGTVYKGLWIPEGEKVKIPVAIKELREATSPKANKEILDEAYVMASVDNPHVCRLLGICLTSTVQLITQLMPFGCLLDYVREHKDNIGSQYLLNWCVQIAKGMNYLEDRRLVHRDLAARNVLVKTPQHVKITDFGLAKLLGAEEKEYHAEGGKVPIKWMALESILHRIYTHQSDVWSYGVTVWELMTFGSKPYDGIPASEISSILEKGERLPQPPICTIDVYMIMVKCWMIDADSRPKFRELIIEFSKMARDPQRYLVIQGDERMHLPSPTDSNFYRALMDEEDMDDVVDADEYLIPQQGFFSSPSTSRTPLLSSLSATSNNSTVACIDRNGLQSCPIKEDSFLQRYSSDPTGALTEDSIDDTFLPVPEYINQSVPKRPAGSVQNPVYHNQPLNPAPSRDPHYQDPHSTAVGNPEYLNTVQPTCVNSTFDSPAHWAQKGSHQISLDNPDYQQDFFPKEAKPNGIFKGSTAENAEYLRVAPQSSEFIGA
Sequence of DNA (cytosine-5)-methyltransferase 1 (P26358 whole entry): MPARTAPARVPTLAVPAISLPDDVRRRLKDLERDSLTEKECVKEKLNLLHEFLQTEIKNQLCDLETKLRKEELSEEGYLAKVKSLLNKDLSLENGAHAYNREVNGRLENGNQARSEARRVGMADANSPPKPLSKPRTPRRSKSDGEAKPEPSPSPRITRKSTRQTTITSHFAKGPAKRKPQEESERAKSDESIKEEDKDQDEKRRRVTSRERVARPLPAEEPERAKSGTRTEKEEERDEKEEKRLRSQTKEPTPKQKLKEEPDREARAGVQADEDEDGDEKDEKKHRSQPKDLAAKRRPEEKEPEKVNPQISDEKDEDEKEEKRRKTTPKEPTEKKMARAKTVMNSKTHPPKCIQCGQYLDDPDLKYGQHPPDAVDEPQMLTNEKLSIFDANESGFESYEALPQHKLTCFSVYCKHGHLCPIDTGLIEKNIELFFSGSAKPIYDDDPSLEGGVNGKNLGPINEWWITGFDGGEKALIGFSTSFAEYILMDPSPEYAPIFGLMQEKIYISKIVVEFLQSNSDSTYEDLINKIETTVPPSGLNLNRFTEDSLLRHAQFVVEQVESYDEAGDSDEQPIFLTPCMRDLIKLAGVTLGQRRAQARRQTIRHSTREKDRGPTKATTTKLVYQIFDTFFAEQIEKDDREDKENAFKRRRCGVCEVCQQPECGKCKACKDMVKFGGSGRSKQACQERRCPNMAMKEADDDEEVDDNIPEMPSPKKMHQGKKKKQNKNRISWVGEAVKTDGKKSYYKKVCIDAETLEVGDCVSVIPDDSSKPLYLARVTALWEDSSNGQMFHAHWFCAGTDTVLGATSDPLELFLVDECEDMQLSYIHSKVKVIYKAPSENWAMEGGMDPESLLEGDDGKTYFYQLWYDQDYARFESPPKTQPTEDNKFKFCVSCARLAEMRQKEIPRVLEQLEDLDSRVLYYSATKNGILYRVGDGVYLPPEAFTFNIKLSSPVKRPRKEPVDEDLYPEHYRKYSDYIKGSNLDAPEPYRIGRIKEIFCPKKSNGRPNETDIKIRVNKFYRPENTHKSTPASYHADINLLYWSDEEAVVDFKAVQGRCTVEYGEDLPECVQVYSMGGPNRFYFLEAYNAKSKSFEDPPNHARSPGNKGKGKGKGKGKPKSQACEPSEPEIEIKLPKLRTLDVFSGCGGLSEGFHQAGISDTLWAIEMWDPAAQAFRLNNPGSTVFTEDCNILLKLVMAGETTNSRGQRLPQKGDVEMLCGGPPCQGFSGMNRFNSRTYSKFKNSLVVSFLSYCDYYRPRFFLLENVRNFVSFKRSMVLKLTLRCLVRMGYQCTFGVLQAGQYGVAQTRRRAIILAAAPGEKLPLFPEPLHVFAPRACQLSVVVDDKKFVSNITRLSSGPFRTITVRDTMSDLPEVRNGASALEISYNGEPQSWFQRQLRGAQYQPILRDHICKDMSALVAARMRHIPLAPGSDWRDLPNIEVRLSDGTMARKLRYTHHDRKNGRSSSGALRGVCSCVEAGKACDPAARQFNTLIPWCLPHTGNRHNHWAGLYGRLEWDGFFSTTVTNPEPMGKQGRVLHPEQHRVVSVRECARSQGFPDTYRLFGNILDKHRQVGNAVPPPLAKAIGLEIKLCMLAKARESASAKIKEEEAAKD
Sequence of DNA (cytosine-5)-methyltransferase 3A (Q9Y6K1 whole entry, looked up): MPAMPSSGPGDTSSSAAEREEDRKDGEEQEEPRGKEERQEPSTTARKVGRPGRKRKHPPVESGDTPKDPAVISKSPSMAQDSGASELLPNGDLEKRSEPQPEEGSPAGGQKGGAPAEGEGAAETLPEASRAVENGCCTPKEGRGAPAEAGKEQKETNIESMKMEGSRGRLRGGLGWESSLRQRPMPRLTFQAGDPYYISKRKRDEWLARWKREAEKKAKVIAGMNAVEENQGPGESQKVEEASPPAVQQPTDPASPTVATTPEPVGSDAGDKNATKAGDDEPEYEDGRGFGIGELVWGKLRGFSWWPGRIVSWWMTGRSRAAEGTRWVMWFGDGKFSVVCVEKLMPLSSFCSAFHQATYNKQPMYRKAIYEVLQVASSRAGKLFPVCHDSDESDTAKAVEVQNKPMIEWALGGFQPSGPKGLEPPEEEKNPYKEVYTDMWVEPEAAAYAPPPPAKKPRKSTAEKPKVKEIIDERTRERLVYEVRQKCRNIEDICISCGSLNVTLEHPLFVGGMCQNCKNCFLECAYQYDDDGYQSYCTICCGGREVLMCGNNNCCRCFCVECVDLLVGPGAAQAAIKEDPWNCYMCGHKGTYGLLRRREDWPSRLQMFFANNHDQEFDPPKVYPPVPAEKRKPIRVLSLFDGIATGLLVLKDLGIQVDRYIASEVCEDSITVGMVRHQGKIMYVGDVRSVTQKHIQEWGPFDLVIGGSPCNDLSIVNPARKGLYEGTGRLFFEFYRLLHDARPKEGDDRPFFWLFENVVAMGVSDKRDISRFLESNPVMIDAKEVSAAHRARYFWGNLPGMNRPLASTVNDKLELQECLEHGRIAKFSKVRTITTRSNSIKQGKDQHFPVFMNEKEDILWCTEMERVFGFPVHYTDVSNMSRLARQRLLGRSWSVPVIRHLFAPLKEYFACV
Sequence of Cyclin-dependent kinase 4 (P11802 whole entry): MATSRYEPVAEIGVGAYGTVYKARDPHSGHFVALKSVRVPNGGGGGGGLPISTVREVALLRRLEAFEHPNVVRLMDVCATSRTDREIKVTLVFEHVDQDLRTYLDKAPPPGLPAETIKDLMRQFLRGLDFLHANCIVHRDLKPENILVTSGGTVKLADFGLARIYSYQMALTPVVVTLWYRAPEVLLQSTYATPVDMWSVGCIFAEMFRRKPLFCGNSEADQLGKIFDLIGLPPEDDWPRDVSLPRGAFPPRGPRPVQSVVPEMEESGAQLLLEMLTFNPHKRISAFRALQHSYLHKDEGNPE

CCC(CC)(c1ccc(OCC(=O)NO)cc1)c1ccc(OCC(O)C(C)(C)C)c(C)c1 (centres undefined)
IC50 (4T1): 10000 nM

Cc1noc(C)c1-c1ccc2c(c1)c(Cc1ccc(F)cc1)cn2CCCCCCC(=O)NO
IC50 (THP-1): 15500 nM

COc1ccc2c(NC3CCN(Cc4ccccc4)CC3)nc(NCCNC(=O)CCCCC(=O)NO)nc2c1
IC50 (Histone deacetylase [1]): 5700 nM | IC50 [2]: 7140 nM

Cc1sc2c(c1C)C(c1ccc(Cl)cc1)=N[C@@H](CC(=O)Nc1ccc(C(=O)NO)cc1)c1nnc(C)n1-2
IC50 (CAPAN-1): 150 nM | IC50 (Histone deacetylase 1 [3]): 21 nM

O=C(CCCCCNC(=O)c1cc(O)c2c(c1)C(=O)c1cccc(O)c1C2=O)NO
IC50 (U-251): 7000 nM | IC50 (U-87 MG): 8000 nM | IC50 (T98G): 5500 nM

O=C(CCCCCCn1cc(-c2ccc3ncnc(Nc4ccc(Br)cc4F)c3c2)nn1)NO
IC50 [4]: 10.3 nM | IC50 [5]: 4.3 nM | IC50 (Histone deacetylase 1 [6]): 1.1 nM | IC50 (A549 [7]): 710 nM

Cc1nc2ccc(-c3nc(Nc4ccc(NC(=O)CCCCCC(=O)NO)cc4)ncc3F)cc2n1C(C)C
IC50 (Histone deacetylase 1 [6]): 17 nM | IC50 [8]: 1.2 nM | IC50 [9]: 126 nM

COc1cc(NC(=O)CCCCCCCCCCC(=O)NO)ccc1Nc1nccc(-c2cn(C)c3ccccc23)n1
IC50 (KG-1): 240 nM | IC50 [10]: 5700 nM | IC50 (A549 [11]): 2190 nM | IC50 (MDA-MB-468): 230 nM | IC50 (Histone deacetylase [12]): 85 nM

O=C(NO)C1CCN(CC(O)COC(Cn2c3ccccc3c3ccccc32)Cn2c3ccccc3c3ccccc32)CC1 (centres undefined)
IC50 [13]: 2020 nM | IC50 (Histone deacetylase 1 [14]): 4160 nM | IC50 [15]: 930 nM

C#Cc1cccc(Nc2ncnc3cc(OCCOC)c(OCCOC)cc23)c1 [ERLOTINIB]
IC50 (A549 [7]): 16800 nM

C=CC(=O)Nc1cc(Nc2nccc(-c3cn(C)c4ccccc34)n2)c(OC)cc1N(C)CCN(C)C [OSIMERTINIB]
IC50 (KG-1): 530 nM | IC50 (A549 [11]): 1970 nM | IC50 (MDA-MB-468): 1300 nM

Cn1c(CCCCCCC(=O)NO)nc2cc(N(CCCl)CCCl)ccc21 [TINOSTAMUSTINE]
IC50 [16]: 6 nM
